Earlier results as cited in publication PMC9851200, “Multiparameter phenotypic screening for endogenous TFEB and TFE3 translocation identifies novel chemical series modulating lysosome function” (Autophagy, 2022).

Columns and labels:
Parameters in all cases: method as in original PKIS2 published data
[1] = target: T1, kinases (KINOMEscan panel) (Homo sapiens, UniProt O15111); conditions: cited from earlier work
T1 sequence (O15111 1-745): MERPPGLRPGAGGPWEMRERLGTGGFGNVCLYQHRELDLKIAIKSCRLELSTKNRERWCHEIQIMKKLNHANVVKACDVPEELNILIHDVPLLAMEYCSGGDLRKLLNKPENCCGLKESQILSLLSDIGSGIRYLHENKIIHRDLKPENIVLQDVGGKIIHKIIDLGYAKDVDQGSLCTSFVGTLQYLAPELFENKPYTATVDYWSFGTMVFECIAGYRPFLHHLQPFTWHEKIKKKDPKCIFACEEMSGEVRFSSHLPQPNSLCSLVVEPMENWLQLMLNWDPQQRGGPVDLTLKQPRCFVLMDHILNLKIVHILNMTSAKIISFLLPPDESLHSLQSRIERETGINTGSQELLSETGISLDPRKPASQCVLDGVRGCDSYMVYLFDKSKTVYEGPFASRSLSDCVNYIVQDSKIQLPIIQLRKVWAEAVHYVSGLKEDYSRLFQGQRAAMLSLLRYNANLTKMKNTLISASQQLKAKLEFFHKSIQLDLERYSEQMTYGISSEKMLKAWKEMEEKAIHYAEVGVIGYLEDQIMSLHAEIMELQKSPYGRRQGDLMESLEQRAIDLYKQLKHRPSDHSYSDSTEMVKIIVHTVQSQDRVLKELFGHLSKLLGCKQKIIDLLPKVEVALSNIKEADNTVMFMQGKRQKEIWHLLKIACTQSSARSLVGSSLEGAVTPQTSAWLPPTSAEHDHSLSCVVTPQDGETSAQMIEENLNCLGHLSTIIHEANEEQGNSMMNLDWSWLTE

[2] = target: kinases (KINOMEscan panel) (Homo sapiens, UniProt Q16513); conditions: kinase PKN2; Published KINOMEscan; ref original PKIS2 published data; cited from earlier work
[3] = target: T2, kinases (KINOMEscan panel) (Homo sapiens, UniProt Q9NRP7); conditions: STK36; Published KINOMEscan; ref original PKIS2 published data; cited from earlier work
T2 sequence (Q9NRP7 1-1315): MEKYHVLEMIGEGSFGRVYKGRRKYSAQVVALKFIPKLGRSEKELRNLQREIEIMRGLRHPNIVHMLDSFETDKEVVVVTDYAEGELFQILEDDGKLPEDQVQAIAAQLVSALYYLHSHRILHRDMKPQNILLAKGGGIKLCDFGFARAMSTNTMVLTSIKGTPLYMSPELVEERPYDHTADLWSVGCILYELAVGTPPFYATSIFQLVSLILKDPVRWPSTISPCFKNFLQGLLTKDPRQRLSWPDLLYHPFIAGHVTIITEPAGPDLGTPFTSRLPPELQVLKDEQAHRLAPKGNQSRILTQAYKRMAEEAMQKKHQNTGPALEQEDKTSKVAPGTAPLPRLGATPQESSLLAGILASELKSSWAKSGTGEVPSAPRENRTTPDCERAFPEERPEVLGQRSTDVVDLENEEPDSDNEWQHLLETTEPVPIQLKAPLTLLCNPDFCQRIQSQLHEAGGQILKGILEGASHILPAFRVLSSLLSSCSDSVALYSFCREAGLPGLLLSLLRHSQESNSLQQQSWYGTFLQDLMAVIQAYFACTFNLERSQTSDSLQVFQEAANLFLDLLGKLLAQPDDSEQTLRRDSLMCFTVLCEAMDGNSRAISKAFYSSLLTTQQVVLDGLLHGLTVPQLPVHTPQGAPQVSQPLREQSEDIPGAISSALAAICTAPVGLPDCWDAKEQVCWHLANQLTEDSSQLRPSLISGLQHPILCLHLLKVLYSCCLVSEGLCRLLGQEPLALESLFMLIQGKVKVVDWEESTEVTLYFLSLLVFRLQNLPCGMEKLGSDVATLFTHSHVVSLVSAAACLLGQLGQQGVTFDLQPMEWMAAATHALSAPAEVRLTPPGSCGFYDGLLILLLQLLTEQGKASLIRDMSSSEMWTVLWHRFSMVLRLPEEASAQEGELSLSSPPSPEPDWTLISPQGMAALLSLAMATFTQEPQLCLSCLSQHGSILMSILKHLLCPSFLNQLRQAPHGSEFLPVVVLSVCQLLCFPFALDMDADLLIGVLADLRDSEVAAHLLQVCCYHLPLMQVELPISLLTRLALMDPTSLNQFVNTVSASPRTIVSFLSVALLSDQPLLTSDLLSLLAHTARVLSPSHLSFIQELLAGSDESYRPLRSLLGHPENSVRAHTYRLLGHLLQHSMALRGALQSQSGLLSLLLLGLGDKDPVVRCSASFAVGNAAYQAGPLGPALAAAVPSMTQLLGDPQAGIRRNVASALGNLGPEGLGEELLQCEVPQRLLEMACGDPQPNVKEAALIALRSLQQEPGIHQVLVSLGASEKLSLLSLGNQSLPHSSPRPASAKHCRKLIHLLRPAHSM

[4] = target: T3, kinases (KINOMEscan panel) (Homo sapiens, UniProt P51955); conditions: kinase NEK2; Published KINOMEscan; ref original PKIS2 published data; cited from earlier work
T3 sequence (P51955 1-445): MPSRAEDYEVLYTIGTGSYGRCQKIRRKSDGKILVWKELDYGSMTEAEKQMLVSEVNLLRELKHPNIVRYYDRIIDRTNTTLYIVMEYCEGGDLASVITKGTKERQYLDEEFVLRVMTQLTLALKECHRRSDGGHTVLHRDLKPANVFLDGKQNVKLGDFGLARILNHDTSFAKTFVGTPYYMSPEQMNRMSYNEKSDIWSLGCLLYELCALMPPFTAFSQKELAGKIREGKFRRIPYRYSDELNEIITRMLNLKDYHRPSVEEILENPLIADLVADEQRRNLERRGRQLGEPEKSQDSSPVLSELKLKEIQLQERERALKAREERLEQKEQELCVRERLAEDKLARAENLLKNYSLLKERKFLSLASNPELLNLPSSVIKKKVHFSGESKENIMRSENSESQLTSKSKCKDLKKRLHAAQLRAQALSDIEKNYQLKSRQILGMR

Sequence of kinases (KINOMEscan panel) (Homo sapiens, UniProt Q16513) (Q16513 whole entry): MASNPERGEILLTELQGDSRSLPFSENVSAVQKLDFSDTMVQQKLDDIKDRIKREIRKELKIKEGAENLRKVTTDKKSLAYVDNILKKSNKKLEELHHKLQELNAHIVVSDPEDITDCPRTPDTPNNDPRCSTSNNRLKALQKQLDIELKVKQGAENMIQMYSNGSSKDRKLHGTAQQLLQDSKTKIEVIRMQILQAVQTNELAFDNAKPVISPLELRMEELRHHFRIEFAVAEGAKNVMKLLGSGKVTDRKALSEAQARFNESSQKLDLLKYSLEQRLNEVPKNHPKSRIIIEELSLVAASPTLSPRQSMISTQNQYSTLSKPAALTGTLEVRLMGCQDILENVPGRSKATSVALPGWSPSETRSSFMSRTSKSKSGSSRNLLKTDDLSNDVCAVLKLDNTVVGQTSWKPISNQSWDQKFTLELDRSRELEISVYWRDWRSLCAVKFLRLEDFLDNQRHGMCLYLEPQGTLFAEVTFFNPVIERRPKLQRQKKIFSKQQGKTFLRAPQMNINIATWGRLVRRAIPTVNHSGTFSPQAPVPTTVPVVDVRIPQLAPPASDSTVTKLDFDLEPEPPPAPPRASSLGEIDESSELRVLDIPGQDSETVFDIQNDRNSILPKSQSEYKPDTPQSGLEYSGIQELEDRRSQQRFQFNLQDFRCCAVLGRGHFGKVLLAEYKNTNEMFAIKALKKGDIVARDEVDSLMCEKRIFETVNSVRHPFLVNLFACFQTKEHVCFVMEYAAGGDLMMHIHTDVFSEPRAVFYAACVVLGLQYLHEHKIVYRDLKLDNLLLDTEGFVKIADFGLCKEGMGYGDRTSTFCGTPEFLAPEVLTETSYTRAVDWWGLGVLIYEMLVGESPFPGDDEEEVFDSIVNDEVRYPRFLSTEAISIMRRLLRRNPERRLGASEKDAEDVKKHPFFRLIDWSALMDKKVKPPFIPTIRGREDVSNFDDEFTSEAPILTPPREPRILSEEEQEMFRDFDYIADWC

Cc1cccc(-c2nc(Nc3ccncc3)c3ccccc3n2)n1 [NK215]
KINOMEscan CHUK/IKK-alpha [1]: 0
KINOMEscan PKN2 [2]: 0
KINOMEscan STK36 [3]: 5
KINOMEscan NEK2 [4]: 0
